Among the data in patent publication US11447466B2, “Substituted indole compounds useful as inhibitors of TLR7/8/9” (BRISTOL-MYERS SQUIBB COMPANY, priority 2017, dated 2022) are IC50 values, retold here.

One may read the IC50 as the concentration needed to halve the response being measured. The low end stands for higher potency, the high end for lower potency.

The structures appear in SMILES notation.

One experiment concerns the target T1, human TLR7 (Homo sapiens, UniProt Q9NYK1).
T1 construct: host or cells: HEK-Blue cells
T1 sequence (Q9NYK1 27-1049): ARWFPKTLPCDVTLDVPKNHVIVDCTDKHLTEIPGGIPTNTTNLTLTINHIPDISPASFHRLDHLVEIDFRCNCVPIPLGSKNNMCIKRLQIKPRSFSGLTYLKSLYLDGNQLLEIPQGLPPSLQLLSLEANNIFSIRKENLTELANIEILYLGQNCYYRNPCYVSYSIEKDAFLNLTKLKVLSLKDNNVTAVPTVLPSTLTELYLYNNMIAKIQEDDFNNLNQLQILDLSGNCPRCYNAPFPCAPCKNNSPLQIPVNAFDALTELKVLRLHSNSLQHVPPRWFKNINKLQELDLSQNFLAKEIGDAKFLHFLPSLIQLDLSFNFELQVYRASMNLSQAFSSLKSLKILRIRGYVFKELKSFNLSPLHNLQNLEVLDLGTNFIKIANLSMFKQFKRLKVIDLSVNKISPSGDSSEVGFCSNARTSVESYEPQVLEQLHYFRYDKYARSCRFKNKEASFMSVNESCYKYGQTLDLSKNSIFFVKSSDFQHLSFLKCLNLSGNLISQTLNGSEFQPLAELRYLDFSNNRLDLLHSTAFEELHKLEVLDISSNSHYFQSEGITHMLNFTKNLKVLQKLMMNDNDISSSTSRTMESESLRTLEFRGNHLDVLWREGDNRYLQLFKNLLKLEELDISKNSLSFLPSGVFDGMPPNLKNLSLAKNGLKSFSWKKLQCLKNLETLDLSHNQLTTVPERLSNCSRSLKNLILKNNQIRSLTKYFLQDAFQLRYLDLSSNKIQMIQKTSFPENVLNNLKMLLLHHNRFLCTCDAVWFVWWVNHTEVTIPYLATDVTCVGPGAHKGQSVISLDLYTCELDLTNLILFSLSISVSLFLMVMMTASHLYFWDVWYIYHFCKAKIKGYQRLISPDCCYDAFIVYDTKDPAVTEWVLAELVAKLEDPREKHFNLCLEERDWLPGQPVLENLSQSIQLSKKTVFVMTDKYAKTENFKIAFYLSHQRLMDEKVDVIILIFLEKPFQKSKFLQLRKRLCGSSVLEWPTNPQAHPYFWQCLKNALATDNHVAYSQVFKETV
Description: TLR7 inhibition reporter assay (HEK-Blue SEAP reporter, gardiquimod stimulation). In kind it is cell-based. Conditions: HEK-Blue cells overexpressing human TLR7, SEAP reporter, gardiquimod 7.5 μM, 22 hour incubation. On the procedure: (§1) TLR7/8/9 Inhibition Reporter Assays
(§2) HEK-Blue™-cells (Invivogen) overexpressing human TLR7, TLR8 or TLR9 receptors were used for screening inhibitors of these receptors using an inducible SEAP (secreted embryonic alkaline phosphatase) reporter gene under the control of the IFN-β minimal promoter fused to five NF-κB and AP-1-binding sites. Briefly, cells are seeded into Greiner 384 well plates (15000 cells per well for TLR7, 20,000 for TLR8 and 25,000 for TLR9) and then treated with test compounds in DMSO to yield a final dose response concentration range of 0.05 nM-50 μM. After a 30 minute compound pre-treatment at room temperature, the cells are then stimulated with a TLR7 ligand (gardiquimod at a final concentration of 7.5 μM), TLR8 ligand (R848 at a final concentration of 15.9 μM) or TLR9 ligand (ODN2006 at a final concentration of 5 nM) to activate NF-κB and AP-1 which induce the production of SEAP. After a 22 hour incubation at 37° C., 5% CO2, SEAP levels are determined with the addition of HEK-Blue™ Detection reagent (Invivogen), a cell culture medium that allows for detection of SEAP, according to manufacturer's specifications. The percent inhibition is determined as the % reduction in the HEK-Blue signal present in wells treated with agonist plus DMSO alone compared to wells treated with a known inhibitor.
On the technique in general: Reporter assays use an easily measured gene product as a stand-in for the process of interest.

A further experiment concerns the target T2, human TLR8 (Homo sapiens, UniProt Q9NR97).
T2 construct: host or cells: HEK-Blue cells
T2 sequence (Q9NR97 27-1041): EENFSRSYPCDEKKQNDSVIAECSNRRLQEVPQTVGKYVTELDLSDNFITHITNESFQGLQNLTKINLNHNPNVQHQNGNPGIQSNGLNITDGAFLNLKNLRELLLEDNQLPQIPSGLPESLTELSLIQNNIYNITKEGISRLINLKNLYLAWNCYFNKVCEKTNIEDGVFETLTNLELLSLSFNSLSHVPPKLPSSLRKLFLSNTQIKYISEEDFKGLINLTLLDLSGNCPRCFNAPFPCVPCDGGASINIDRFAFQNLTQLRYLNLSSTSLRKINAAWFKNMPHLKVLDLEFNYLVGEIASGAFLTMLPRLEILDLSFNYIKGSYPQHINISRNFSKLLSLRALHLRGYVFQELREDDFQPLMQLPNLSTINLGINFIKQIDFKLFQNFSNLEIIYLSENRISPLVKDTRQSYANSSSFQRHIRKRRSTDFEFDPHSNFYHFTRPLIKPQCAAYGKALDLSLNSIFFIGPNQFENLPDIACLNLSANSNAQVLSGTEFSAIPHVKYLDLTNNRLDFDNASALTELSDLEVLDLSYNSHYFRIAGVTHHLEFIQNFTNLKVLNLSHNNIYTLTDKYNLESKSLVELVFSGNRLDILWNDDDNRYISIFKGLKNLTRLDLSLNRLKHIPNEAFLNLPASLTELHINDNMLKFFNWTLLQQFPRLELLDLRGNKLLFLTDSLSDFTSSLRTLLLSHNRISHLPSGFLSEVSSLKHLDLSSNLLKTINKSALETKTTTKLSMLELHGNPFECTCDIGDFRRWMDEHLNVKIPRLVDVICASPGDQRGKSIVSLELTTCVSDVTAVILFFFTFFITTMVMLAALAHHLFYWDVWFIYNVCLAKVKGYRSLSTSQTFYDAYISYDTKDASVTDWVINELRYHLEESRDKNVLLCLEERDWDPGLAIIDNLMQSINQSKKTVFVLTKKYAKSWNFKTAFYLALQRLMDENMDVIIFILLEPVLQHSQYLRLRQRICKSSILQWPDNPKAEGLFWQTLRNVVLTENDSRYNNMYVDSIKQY
Description: TLR8 inhibition reporter assay (HEK-Blue SEAP reporter, R848 stimulation). In kind it is cell-based. Conditions: HEK-Blue cells overexpressing human TLR8, SEAP reporter, R848 15.9 μM, 22 hour incubation. On the procedure:
as §1, §2

With `Cc1cc(-c2[nH]c3ccc(C4CCN(C(=O)[C@H]5C[C@H](O)CN5)CC4)cc3c2C(C)C)cn(C)c1=O` [Example 288, 5-(5-(1-((2R,4S)-4-hydroxypyrrolidine-2-carbonyl)piperidin-4-yl)-3-isopropyl-1H-indol-2-yl)-1,3-dimethylpyridin-2(1H)-one], the IC50 against human TLR7 was found to be 0.0174 µM; against human TLR8 it was 0.0617 µM.
For the compound `Cc1cc(-c2[nH]c3ccc(C4CCN(C5CCC(C(C)C)CC5)CC4)cc3c2C(C)C)cn(C)c1=O` (stereo not shown) [Example 233, 5-(3-isopropyl-5-(1-(4-isopropylcyclohexyl)piperidin-4-yl)-1H-indol-2-yl)-1,3-dimethylpyridin-2(1H)-one], the IC50 at human TLR7 amounted to 0.0577 µM; against human TLR8, 0.097 µM.
The like results for `Cc1cc(-c2[nH]c3ccc(C4CCN(C(=O)C5(N)CC5)CC4)cc3c2C(C)C)cn(C)c1=O` [Example 272, 5-(5-(1-(1-aminocyclopropanecarbonyl)piperidin-4-yl)-3-isopropyl-1H-indol-2-yl)-1,3-dimethylpyridin-2(1H)-one] were, in that order, 0.0079 µM and 0.053 µM.
Take `Cc1cc(-c2[nH]c3ccc(C4CCN(CCC(C(F)(F)F)C(F)(F)F)CC4)cc3c2C(C)C)cn(C)c1=O` [Example 88, 5-(3-isopropyl-5-(1-(4,4,4-trifluoro-3-(trifluoromethyl)butyl)piperidin-4-yl)-1H-indol-2-yl)-1,3-dimethylpyridin-2(1H)-one]: the IC50 turned out to be 0.0675 µM against human TLR7 and 0.0532 µM against human TLR8.
Take `Cc1cc(-c2[nH]c3ccc(C4CCN(C(=O)[C@H]5C[C@H](O)CN5)CC4)cc3c2C(C)C)cn(C)c1=O` [Example 292, 5-(5-(1-((2R,4S)-4-hydroxypyrrolidine-2-carbonyl)piperidin-4-yl)-3-isopropyl-1H-indol-2-yl)-1,3-dimethylpyridin-2(1H)-one]: the IC50 on human TLR7 was found to be 0.0072 µM; at human TLR8 it was 0.0407 µM.
`CCn1nc(-c2[nH]c3ccc(C4CCNCC4)cc3c2C(C)C)c(C)c(C)c1=O` [Example 27, 2-ethyl-6-(3-isopropyl-5-(piperidin-4-yl)-1H-indol-2-yl)-4,5-dimethylpyridazin-3(2H)-one]: the half-maximal inhibitory concentration (IC50) at human TLR7 came out at 0.165 µM; against human TLR8 it was 0.0185 µM.
The like results for `CC(C)c1c(-c2cc(-c3ccccc3)c(=O)n(C)c2)[nH]c2ccc(C3CCNCC3)cc12` [Example 53, 5-(3-isopropyl-5-(piperidin-4-yl)-1H-indol-2-yl)-1-methyl-3-phenylpyridin-2(1H)-one] were, in that order, 0.0114 µM and 0.0103 µM.
The like results for `Cc1cc(-c2[nH]c3ccc(C4CCN(CC(C)(C)O)CC4)cc3c2C(C)C)cn(Cc2ccccc2)c1=O` [Example 329, 1-benzyl-5-(5-(1-(2-hydroxy-2-methylpropyl)piperidin-4-yl)-3-isopropyl-1H-indol-2-yl)-3-methylpyridin-2(1H)-one] were, in that order, 0.0158 µM and 0.0324 µM.
At human TLR7, `Cc1cc(-c2[nH]c3ccc(C4CCN(C(=O)[C@@H]5C[C@@H](O)CN5)CC4)cc3c2C(C)C)cn(C)c1=O` [Example 290, 5-(5-(1-((2S,4R)-4-hydroxypyrrolidine-2-carbonyl)piperidin-4-yl)-3-isopropyl-1H-indol-2-yl)-1,3-dimethylpyridin-2(1H)-one] yielded an IC50 of 0.0083 µM.
For `CCCN1CCC(c2ccc3[nH]c(-c4cc(-c5cncnc5)c(=O)n(C)c4)c(C(C)C)c3c2)CC1` [Example 249, 5-(3-isopropyl-5-(1-propylpiperidin-4-yl)-1H-indol-2-yl)-1-methyl-3-(pyrimidin-5-yl)pyridin-2(1H)-one], the IC50 is 0.0141 µM against human TLR7 and 0.0011 µM at human TLR8.
As to `Cc1cc(-c2[nH]c3ccc(C4CCN(C5CCC(C(C)C)CC5)CC4)cc3c2C(C)C)cn(C)c1=O` (stereo not shown) [Example 234, 5-(3-isopropyl-5-(1-(4-isopropylcyclohexyl)piperidin-4-yl)-1H-indol-2-yl)-1,3-dimethylpyridin-2(1H)-one], the figures for the IC50 against human TLR7 and against human TLR8 were 0.0402 µM and 0.0523 µM, respectively.
`Cc1cc(-c2[nH]c3ccc(C4CCN(C(=O)[C@@H]5C[C@@H](O)CN5)CC4)cc3c2C(C)C)cn(C)c1=O` [Example 293, 5-(5-(1-((2S,4R)-4-hydroxypyrrolidine-2-carbonyl)piperidin-4-yl)-3-isopropyl-1H-indol-2-yl)-1,3-dimethylpyridin-2(1H)-one] registered an IC50 against human TLR7 of 0.0216 µM.
